In the experiment the test system is hPSC-NSCs. The experiment is described as follows: RT-PCR expression of dopamine neuron genes in hPSC-NSCs treated with small molecule hits. The class given is cell-based, human. Particulars: for fold induction at 2.5 µM: Homo sapiens, Neuron, 336 h. The method, then: The method specifically involved treating both hESC-H9-NSCs (Invitrogen) and hPSC-NSCs with Purmorphamine (2 μM) and FGF8 (100 ng/mL) in NB medium [NeuroBasal medium, 1× GlutaMAX, 1× N2/B27 Supplement (Invitrogen)] for 7 days. After 7 days of Purmorphamine and FGF8 treatment, the NSCs were dissociated with Accutase (Sigma) and plated 20,000 cells/mL into Matrigel coated 96 well plates and treated with small molecule library (Torcris 1120 Biologically Active Compounds) at 2.5 μM final concentration for two weeks (FIG. 6A). Two weeks after treatment with small molecules, all wells were visually observed and scored based on neurite density and dopamine release. For measuring neurite density, cells were fixed with 4% paraformaldehyde and phase contrast images were acquired using Cellavista Cell Imaging System (Roche Applied Science) from randomly selected fields. Neurite density was measured using the Cellavista density software image processing program. Each experimental condition was done in duplicate wells, and at least three independent experiments were conducted to acquire the final results.
Conditioned medium from the top neurite inducers (Table 1) (wells containing the highest density of neurites compare to control 0.1% DMSO treated) were collected and analyzed using a dopamine ELISA assay (Cosmo Bio). Conditioned medium was collected from samples containing 50,000 cells per well and centrifuged at 3000 RPM to remove cell debris. Supernatant was then collected and analyzed for quantitative determination of dopamine using a commercial dopamine ELISA assay kit (CusaCosmo Bio). Data analysis was performed using the microtiter plate reader (BIO-TEK Synergy 2). The results presented are from three independent experiments (n=3) and represented as mean±standard error of mean (s.e.m.) and statistical analysis was performed using the two-tailed Student's t-test with a confidence level of 95% (α=0.05) with statistical significance of P<0.05. Additionally, total RNA from each well were collected and analyze by RT-PCR for expression of TuJ1, MAP2, TH, GRK2, EN1, DAT, AADC, PAX2, NURR1, PITX3 and LMX1B from hPSC-NSCs (Table 2). […] Analysis of the ELISA data indicated the top small molecule neurite inducers produced higher levels of dopamine than control non-treated cells (1.5 ng/mL). […] The percentages of TH positive cells produced by chemical treatment with Kenpaullone (33%), Guggulsterone (35%), Kynurenic Acid (19%), Immedthridine Dihydrobromide (21%), and Dimaprit Dihydrochloride (18%) were higher than 15% of TH positive cells obtained from hPSC-NSCs differentiated for ≥1 month using a standard dopaminergic differentiation medium (BDNF 20 ng/mL, GDNF 20 ng/mL, cAMP 200 μM, Abscorbic Acid 200 μM, TGFβ3 2 ng/mL and DAPT).
Total RNA from at least triplicate samples with around 1 million cells each was isolated using either QIAsymphony automatic purification system or RNeasy Plus Mini kit, according to manufacturer's instructions (Qiagen). Total RNA was used for reverse transcription with the iScript cDNA synthesis kit (Biorad) and Px2 Thermal Cycler (Thermo Scientific). To analyze gene expression, PCR reactions were performed in duplicate using 1/25-th of the cDNA per reaction and the QuantiTect Primer Assay and Quantitest SYBR Green master mix (Qiagen). qPCR was performed using the Rotor-Gene Q (Qiagen) 5 min at 95° C., 5 s at 92° C., and 20 s at 60° C. for 37 cycles followed by melt to check the specificity of the amplicons from 50 to 99° C. raising by 1° C. each step. Relative quantification was performed against a standard curve and quantified values were normalized against the input determined by PPIG. The primers used for the analysis are listed in Supplementary Table S1. […]

The mark [1] stands for this setting: hPSC-NSCs primed 7 days with Purmorphamine and FGF8, small molecule 2.5 μM for two weeks.
[2] abbreviates: hPSC-NSCs primed 7 days with Purmorphamine and FGF8, small molecule 2.5 μM for two weeks, read-out: DDC (AADC) expression by RT-PCR.
The mark [3] stands for this setting: hPSC-NSCs primed 7 days with Purmorphamine and FGF8, small molecule 2.5 μM for two weeks, read-out: EN1 expression by RT-PCR.
Where [4] appears, read: hPSC-NSCs primed 7 days with Purmorphamine and FGF8, small molecule 2.5 μM for two weeks, read-out: KCNJ6 expression by RT-PCR.
Setting [5] is: hPSC-NSCs primed 7 days with Purmorphamine and FGF8, small molecule 2.5 μM for two weeks, read-out: LMX1B expression by RT-PCR.
Where [6] appears, read: hPSC-NSCs primed 7 days with Purmorphamine and FGF8, small molecule 2.5 μM for two weeks, read-out: MAP2 expression by RT-PCR.
The mark [7] stands for this setting: hPSC-NSCs primed 7 days with Purmorphamine and FGF8, small molecule 2.5 μM for two weeks, read-out: NR4A2 (NURR1) expression by RT-PCR.
[8] abbreviates: hPSC-NSCs primed 7 days with Purmorphamine and FGF8, small molecule 2.5 μM for two weeks, read-out: PITX3 expression by RT-PCR.
Where [9] appears, read: hPSC-NSCs primed 7 days with Purmorphamine and FGF8, small molecule 2.5 μM for two weeks, read-out: Pax2 expression by RT-PCR.
The mark [10] stands for this setting: hPSC-NSCs primed 7 days with Purmorphamine and FGF8, small molecule 2.5 μM for two weeks, read-out: SLC6A3 (DAT) expression by RT-PCR.
The mark [11] stands for this setting: hPSC-NSCs primed 7 days with Purmorphamine and FGF8, small molecule 2.5 μM for two weeks, read-out: TH1 expression by RT-PCR.
The mark [12] stands for this setting: hPSC-NSCs primed 7 days with Purmorphamine and FGF8, small molecule 2.5 μM for two weeks, read-out: Tubb3 expression by RT-PCR.

Counter-ions that a name gives are not always drawn. Like-named read-outs stand apart in the source and are kept apart here.

As for `N[C@@H](CS(=O)O)C(=O)O` [L-Cysteinesulfinic acid], under setting [1], the “DDC (AADC) expression by RT-PCR” value was 17.27, the “EN1 expression by RT-PCR” value was determined as 5.76, the “KCNJ6 (GRK2) expression by RT-PCR” value turned out to be 3.02 and the “LMX1B expression by RT-PCR” value came to 2.66. Also, under setting [1], the “MAP2 expression by RT-PCR” value is 9.52, the “NR4A2 (NURR1) expression by RT-PCR” value is 2.02, the “Pax2 expression by RT-PCR” value is 0.22 and the “SLC6A3 (DAT) expression by RT-PCR” value turned out to be 1.54. Further, under setting [1], the “TH1 expression by RT-PCR” value is recorded as 7.84 and the “Tubb3 expression by RT-PCR” value is on record as 3.41.
Take `c1ccc(-c2[nH]ncc2-c2ccnc3ccccc23)nc1` [LY 364947]: under setting [1], the “DDC (AADC) expression by RT-PCR” value is recorded as 64.48, the “EN1 expression by RT-PCR” value stood at 7.42, the “KCNJ6 (GRK2) expression by RT-PCR” value came out at 1.09 and the “MAP2 expression by RT-PCR” value worked out at 10.48. Under setting [1], the “NR4A2 (NURR1) expression by RT-PCR” value is given as 3.01, the “SLC6A3 (DAT) expression by RT-PCR” value is recorded as 5.08, the “TH1 expression by RT-PCR” value is 5.23 and the “Tubb3 expression by RT-PCR” value is on record as 4.23.
Consider `O=C1N(c2ccccc2)c2ccccc2C1(Cc1ccncc1)Cc1ccncc1` [Linopirdine dihydrochloride], for which the fold induction at 2.5 µM under setting [2] is 7.02; the fold induction at 2.5 µM under setting [3] is 4.06; the fold induction at 2.5 µM under setting [4] is 0.16; the fold induction at 2.5 µM under setting [5] was 2.84; the fold induction at 2.5 µM under setting [6] came out at 7.02; the fold induction at 2.5 µM under setting [7] came out at 0.69. Besides, the fold induction at 2.5 µM reads like this: under setting [8], 0.26; under setting [9], 0.3; under setting [10], 0.28; under setting [11], 8.61; under setting [12], 3.74.
On to `CC1(C)NC(=O)N(c2ccc([N+](=O)[O-])c(C(F)(F)F)c2)C1=O` [Nilutamide], for which the fold induction at 2.5 µM was found to be 172 under setting [2]; 5.33 under setting [3]; 2.1 under setting [4]; 2.55 under setting [5]; 10.6 under setting [6]; 1.43 under setting [7]. For the same compound, the fold induction at 2.5 µM under setting [8] worked out at 0.27; the fold induction at 2.5 µM under setting [9] was 0.9; the fold induction at 2.5 µM under setting [10] was determined as 2.07; the fold induction at 2.5 µM under setting [11] was 10.1; the fold induction at 2.5 µM under setting [12] amounted to 3.81.
For `CCN1CCC[C@H]1CNC(=O)c1c(OC)ccc(Br)c1OC` [Remoxipride hydrochloride], the fold induction at 2.5 µM runs as follows: under setting [2], 13.8; under setting [3], 6.6; under setting [4], 0.93; under setting [5], 3.16; under setting [6], 11.5; under setting [7], 3.21. In addition, the fold induction at 2.5 µM by setting is: under setting [8], 0.69; under setting [9], 0.86; under setting [10], 6.41; under setting [11], 12; under setting [12], 5.73.
In the case of `CC1=C(/C=C/C(C)=C/C=C/C(C)=C/C(=O)O)C(C)(C)CCC1` [Retinoic acid], the fold induction at 2.5 µM was determined as 110 under setting [2]; 12.8 under setting [3]; 2.8 under setting [4]; 1.25 under setting [5]; 7.7 under setting [6]; 153 under setting [7]. Further, the fold induction at 2.5 µM is, setting by setting: under setting [8], 0.04; under setting [9], 0.5; under setting [10], 1.99; under setting [11], 1.99; under setting [12], 7.05.
For the compound `CCOC(=O)c1ncn2c1CN(C)C(=O)c1cc(N=[N+]=[N-])ccc1-2` [Ro 15-4513], under setting [1], the “DDC (AADC) expression by RT-PCR” value stood at 12.88, the “EN1 expression by RT-PCR” value came out at 5.9, the “KCNJ6 (GRK2) expression by RT-PCR” value was 0.09 and the “MAP2 expression by RT-PCR” value is 7.19. In addition, under setting [1], the “NR4A2 (NURR1) expression by RT-PCR” value is listed as 0.9, the “PITX3 expression by RT-PCR” value amounted to 0.72, the “SLC6A3 (DAT) expression by RT-PCR” value was 0.46 and the “TH1 expression by RT-PCR” value is reported as 8.49. Moreover, the “Tubb3 expression by RT-PCR” value under setting [1] was 4.9.
For the compound `FC(F)(F)c1cccc(-c2noc(-c3cc(-c4ccccc4)c(C(F)(F)F)s3)n2)c1` [SEW 2871], the fold induction at 2.5 µM is, setting by setting: under setting [2], 68.3; under setting [3], 8.08; under setting [4], 0.88; under setting [5], 3.65; under setting [6], 12.3; under setting [7], 2.36. Further, the fold induction at 2.5 µM under setting [9] was found to be 1.59, the fold induction at 2.5 µM under setting [10] came out at 32.1, the fold induction at 2.5 µM under setting [11] is 7.6 and the fold induction at 2.5 µM under setting [12] was 5.17.
For the compound `O=C(CCCN1CCC2(CC1)C(=O)NCN2c1ccccc1)c1ccc(F)cc1` [Spiperone hydrochloride], the fold induction at 2.5 µM reads like this: under setting [2], 13.1; under setting [3], 7.4; under setting [4], 0.24; under setting [6], 9.66; under setting [7], 0.58; under setting [8], 0.18. The fold induction at 2.5 µM is, setting by setting: under setting [10], 1.25; under setting [11], 11.1; under setting [12], 3.57.
For the compound `C/C(=C\c1ccc(C(=O)O)cc1)c1ccc2c(c1)C(C)(C)CCC2(C)C` [TTNPB], under setting [1], the “DDC (AADC) expression by RT-PCR” value is 21.95, the “EN1 expression by RT-PCR” value came to 9.42, the “KCNJ6 (GRK2) expression by RT-PCR” value is reported as 0.69 and the “LMX1B expression by RT-PCR” value was found to be 1.45. Also, under setting [1], the “MAP2 expression by RT-PCR” value came to 6.36, the “NR4A2 (NURR1) expression by RT-PCR” value was determined as 14.8, the “Pax2 expression by RT-PCR” value is reported as 0.09 and the “SLC6A3 (DAT) expression by RT-PCR” value is recorded as 0.5. Under setting [1], the “TH1 expression by RT-PCR” value is 5.5 and the “Tubb3 expression by RT-PCR” value came to 4.64.
Turning to `S=C(NC1CCCCC1)N1CCC(c2cnc[nH]2)CC1` [Thioperamide], the fold induction at 2.5 µM runs as follows: (read-out: SLC6A3 (DAT) expression by RT-PCR) 25.5; under setting [2], 95.6; under setting [3], 7.72; under setting [4], 2.21; under setting [5], 3.81; under setting [6], 13.2. For the same compound, the fold induction at 2.5 µM runs as follows: under setting [7], 3.43; under setting [8], 0.28; under setting [9], 1.15; under setting [11], 8.38; under setting [12], 5.6.
